In article PMC10069031 (European Journal of Medical Research, 2023):

Legend:
F4/80^hi population = assay: F4/80^hi cells in MC38 tumors; format: in vivo, mouse; details: even at 5 mg/kg/day
Procedure: For tumors, single-cell suspensions were prepared from the fresh tumor pieces using a mouse Tumor Dissociation Kit (Miltenyi Biotec). The final cell pellets were resuspended in 1 mL FC buffer (PBS with 2 mM EDTA, 0.5% bovine serum albumin). Then, 100 µL of the tumor single-cell suspensions and the EDTA blood samples were stained by addition of the antibody cocktail and incubated for 10 min at 4 °C according to the manufacturer’s instructions. After antibody incubation, blood samples were incubated with 2–3 mL lysis buffer (0.17 M NH4Cl, 10 mM KHCO3, 0.1 mM EDTA) for 10–20 min at RT to lyse and remove red blood cells. Subsequently, samples were centrifuged at 300 g for 5 min at 4 °C and cells were washed with 2–3 mL FC buffer. Tumor samples were washed immediately after antibody incubation with 2–3 mL FC buffer without the lysis procedure and centrifuged at 300 g for 5 min at 4 °C. […] Next, 50 µL of blood and 70 µL of tumor cell suspensions were analyzed by FC using MACSQuant Analyzer 10 and MACSQuant Analyzer 16 (Miltenyi Biotec). FC data were analyzed with the FlowLogic software (Inivai Technologies distributed through Miltenyi Biotec; version 7.2.1) and gated as shown in Fig. S1 (see Additional file 2), whereby up to seven subpopulations were identified in the CD45^+ fraction using antibodies against F4/80 and CD115. […]

AKT = assay: Inhibition of AKT activation in CSF1-stimulated RAW264.7 cells (western blot); format: cell-based, mouse; details: Mus musculus, mean ± SD (replicates), read-out: Mean kinase IC50 values: P(S473)AKT [WB]
Procedure: RAW264.7 cells (10^6) were seeded into cell culture dishes 6 cm in diameter and incubated in 4 mL RPMI/10% fetal bovine serum (Biochrom) for 24 h at 37 °C in a humidified 5% CO2 atmosphere. Cells were washed once with phosphate-buffered saline (PBS) and starved in 3 mL RPMI/0.1% bovine serum albumin for another 24 h. Cells were then treated for 1 h at 37 °C with drugs at the indicated final concentrations, with 0.5% DMSO as vehicle control, or left untreated, and finally stimulated for 2 min at 37 °C with 100 ng/mL recombinant mouse CSF1 (R&D Systems) by adding 1 mL prewarmed starving medium containing 400 ng/mL CSF1. Dishes were placed on ice and cells were immediately washed with ice-cold PBS and lysed with 50 µL lysis buffer (50 mM HEPES pH 7.5, 150 mM NaCl, 1.5 mM MgCl2, 10% glycerol, 1% Triton X-100, 0.5% desoxycholate, 0.2% sodium dodecyl sulfate, 1 mM ethylene glycol-bis[β-aminoethyl ether]-N,N,N′,N′-tetraacetic acid, 100 mM NaF, 10 mM Na4P2O7, 1 mM Na3VO4, 1% Phosphatase Inhibitor Cocktail 3 [Sigma-Aldrich], 1 mM phenylmethyl sulfonyl fluoride, Complete Protease Inhibitor Cocktail [Roche CustomBiotech; 1 tablet/10 mL], and 50 U/mL Benzonase [Sigma-Aldrich]). Lysed cells were scraped into Eppendorf tubes, incubated on ice for 20 min, and centrifuged at 4 °C for 10 min at 13,000 rpm; supernatants (lysates) were transferred into new tubes and stored at −80 °C.
Protein concentrations were determined using Pierce bicinchoninic acid assay (Thermo Fisher Scientific) and 40 µg/lane of total lysate was separated by SDS-PAGE on 4–12% Criterion XT Bis–Tris Gels (Bio-Rad) and subsequently transferred to polyvinylidene difluoride membranes using the Trans Blot Turbo Blotting System (Bio-Rad). For antigen detection, membranes were blocked with PBS Odyssey blocking reagent (LI-COR Biosciences) for 1 h at room temperature (RT). Primary antibodies were incubated overnight at 4 °C and the fluorescent secondary antibodies were incubated for 1 h at RT. After each antibody incubation, blots were washed with PBS with 0.05% Tween 20 (Carl Roth) for 15–30 min at RT. Fluorescent signals were quantitatively captured using the Odyssey DLx Infrared Imaging System (LI-COR Biosciences) and the half-maximal inhibitory concentration (IC50) values were calculated using GraphPad software (version 7 or newer).

TAM-associated genes = assay: qRT-PCR of TAM-associated genes in CT26 tumors; format: in vivo, mouse; details: REG(V1) vs V1, qRT-PCR

SMILES: CNC(=O)c1cc(Oc2ccc(NC(=O)Nc3ccc(Cl)c(C(F)(F)F)c3)c(F)c2)ccn1 [REG, Regorafenib]
- reduction of the F4/80^hi population vs vehicle (F4/80^hi population): more than twofold
- IC50 (AKT): 141 ± 59 nM
- transcript frequency of Adgre1 (F4/80) (TAM-associated genes): significantly reduced
- transcript frequency of Arg1 (TAM-associated genes): unchanged
- transcript frequency of CSF1R (TAM-associated genes): significantly reduced
- transcript frequency of Hilpda (TAM-associated genes): unchanged
- transcript frequency of Maf (TAM-associated genes): reduced
- transcript frequency of MafB (TAM-associated genes): unchanged
- transcript frequency of Mgl2 (TAM-associated genes): reduced
- transcript frequency of Mrc1 (CD206) (TAM-associated genes): significantly reduced
- transcript frequency of Nos2 (TAM-associated genes): unchanged
- transcript frequency of VEGFA (TAM-associated genes): unchanged
